{"source": "patent US20220016196A1", "about": "“Aloe Based Compositions Comprising Polysaccharides and Polyphenols for Regulation of Homeostasis of Immunity” (Unigen, Inc., priority 2020, published 2022)", "assay_type_in_all_cases": "in vivo, rat", "key": {"[1]": {"tested_on": "C Reactive Protein (CRP)", "assay": "LPS-induced acute lung injury, BAL C Reactive Protein ELISA", "conditions": "rats", "experimental": "(§1) The study was designed to evaluate the direct impact of an Aloe-based composition (UP360) made in the Example 9 in alleviating LPS-induced acute lung injury administered orally at 500 mg/kg and 250 mg/kg. […] In this study, we treated rats with the test materials orally for 7 days before model induction with LPS. On the 8th day, an hour after oral treatment, LPS was instilled intratracheally (i.t.) at 10 mg/kg dissolved in 0.1 mL/100 g PBS to each rat. The normal control rats received the same volume i.t. PBS only.\n(§2) We sacrificed surviving animals 24 hours after intratracheal LPS administration to the rats. At necropsy, collected bronchoalveolar lavage (BAL) by intratracheal injection of 1.5 mL PBS into the right lobe followed by gentle aspiration at least 3 times. Pooled recovered fluid, centrifuged at 1500 rpm for 10 min at 4 ° C., and was used to measure cytokines (e.g. IL-6) and pulmonary protein levels. […]\nThe presence of C Reactive Protein (CRP) in rat BAL diluted 1:1,000 was measured using the C Reactive Protein (PTX1) Rat ELISA kit from Abcam (product #: ab108827) as follows: 1:1,000 diluted BAL was added to a microplate coated with CRP antibody. […] After developing for 10 minutes at room temperature, a stop solution was added, and the absorbance was read at 450 nm. The concentration of CRP was calculated based on the absorbance readings of a CRP standard curve."}, "[2]": {"tested_on": "IL-10", "assay": "LPS-induced acute lung injury, BAL IL-10 ELISA", "conditions": "rats, LPS 10 mg/kg i.t., 24 hours post, oral, 500 mg/kg", "experimental": "as §1, §2\nThe presence of IL-10 in undiluted broncho-alveolar lavage (BAL) samples from Example 23 was measured using the Rat IL-10 Quantikine ELISA kit from R&D Systems (product #: R1000) as follows: undiluted BAL was added to a microplate coated with IL-10 antibody. […] After developing for 30 minutes at room temperature, a stop solution was added, and the absorbance was read at 450 nm. The concentration of IL-10 was calculated based on the absorbance readings of an IL-10 standard curve."}, "[3]": {"tested_on": "MIP-2/CINC-3", "assay": "LPS-induced acute lung injury, lung homogenate MIP-2/CINC-3 ELISA", "conditions": "rats", "experimental": "as §1\nWe sacrificed surviving animals 24 hours after intratracheal LPS administration to the rats. At necropsy, collected bronchoalveolar lavage (BAL) by intratracheal injection of 1.5 mL PBS into the right lobe followed by gentle aspiration at least 3 times. […]\n50 μL of each rat lung homogenate sample from Example 23 (10 per group for Vehicle, Sodium Butyrate (SB), UP360 Low dose, UP360 High dose, 7 per group for Control) and 50 μL of assay diluent buffer were added to the wells of a 96-well microplate coated with monoclonal CINC-3 antibody and allowed to bind for 2 hours. […] The absorbance of each well was read at 450 nm (with a 580 nm correction) and compared to a standard curve of CINC-3 in order to approximate the amount of CINC-3 in each rat lung homogenate sample."}, "[4]": {"conditions": "LPS 10 mg/kg i.t., 24 hours post, oral, 500 mg/kg"}}, "data": [{"smiles": "CCCC(=O)[O-].[Na+]", "note": "[Sodium Butyrate]", "values": [{"measurement": "BAL CRP level, Mean ± SD", "setting": "[1]; [4]", "value": "20093.5 ± 8826.1", "unit": "pg/mL"}, {"measurement": "reduction of BAL CRP vs vehicle", "setting": "[1]; LPS i.t., 500 mg/kg oral", "value": "minimal changes"}, {"measurement": "BAL IL-10 level, Mean ± SD", "setting": "[2]", "value": "154.84 ± 159.63", "unit": "pg/mL"}, {"measurement": "lung homogenate MIP-2/CINC-3 level, Mean ± SD", "setting": "[3]; [4]", "value": "464.00 ± 220.32", "unit": "pg/mL"}, {"measurement": "reduction in CINC-3 level vs vehicle", "setting": "[3]; LPS i.t., 500 mg/kg oral", "value": 17.7, "unit": "%"}]}]}
